According to patent US12441726B2, “Compounds and uses thereof” (Foghorn Therapeutics Inc., priority 2020, dated 2025):

What was measured:
BRG-1 = BRG-1 (Homo sapiens, UniProt P51532); test: ATPase catalytic activity assay (ADP-Glo), BRG-1; conditions: for Emax: 1 h, read-out: BRG1 Max % Inhibition, ADP-Glo, 30 nM BRG-1, 400 μM ATP
BRM = BRM (Homo sapiens, UniProt P51531); test: ATPase catalytic activity assay (ADP-Glo), BRM; conditions: 30 nM BRM, 400 μM ATP; for IC50: BRM ATPase: IC50 (uM)
Sequence of BRM (P51531 whole entry): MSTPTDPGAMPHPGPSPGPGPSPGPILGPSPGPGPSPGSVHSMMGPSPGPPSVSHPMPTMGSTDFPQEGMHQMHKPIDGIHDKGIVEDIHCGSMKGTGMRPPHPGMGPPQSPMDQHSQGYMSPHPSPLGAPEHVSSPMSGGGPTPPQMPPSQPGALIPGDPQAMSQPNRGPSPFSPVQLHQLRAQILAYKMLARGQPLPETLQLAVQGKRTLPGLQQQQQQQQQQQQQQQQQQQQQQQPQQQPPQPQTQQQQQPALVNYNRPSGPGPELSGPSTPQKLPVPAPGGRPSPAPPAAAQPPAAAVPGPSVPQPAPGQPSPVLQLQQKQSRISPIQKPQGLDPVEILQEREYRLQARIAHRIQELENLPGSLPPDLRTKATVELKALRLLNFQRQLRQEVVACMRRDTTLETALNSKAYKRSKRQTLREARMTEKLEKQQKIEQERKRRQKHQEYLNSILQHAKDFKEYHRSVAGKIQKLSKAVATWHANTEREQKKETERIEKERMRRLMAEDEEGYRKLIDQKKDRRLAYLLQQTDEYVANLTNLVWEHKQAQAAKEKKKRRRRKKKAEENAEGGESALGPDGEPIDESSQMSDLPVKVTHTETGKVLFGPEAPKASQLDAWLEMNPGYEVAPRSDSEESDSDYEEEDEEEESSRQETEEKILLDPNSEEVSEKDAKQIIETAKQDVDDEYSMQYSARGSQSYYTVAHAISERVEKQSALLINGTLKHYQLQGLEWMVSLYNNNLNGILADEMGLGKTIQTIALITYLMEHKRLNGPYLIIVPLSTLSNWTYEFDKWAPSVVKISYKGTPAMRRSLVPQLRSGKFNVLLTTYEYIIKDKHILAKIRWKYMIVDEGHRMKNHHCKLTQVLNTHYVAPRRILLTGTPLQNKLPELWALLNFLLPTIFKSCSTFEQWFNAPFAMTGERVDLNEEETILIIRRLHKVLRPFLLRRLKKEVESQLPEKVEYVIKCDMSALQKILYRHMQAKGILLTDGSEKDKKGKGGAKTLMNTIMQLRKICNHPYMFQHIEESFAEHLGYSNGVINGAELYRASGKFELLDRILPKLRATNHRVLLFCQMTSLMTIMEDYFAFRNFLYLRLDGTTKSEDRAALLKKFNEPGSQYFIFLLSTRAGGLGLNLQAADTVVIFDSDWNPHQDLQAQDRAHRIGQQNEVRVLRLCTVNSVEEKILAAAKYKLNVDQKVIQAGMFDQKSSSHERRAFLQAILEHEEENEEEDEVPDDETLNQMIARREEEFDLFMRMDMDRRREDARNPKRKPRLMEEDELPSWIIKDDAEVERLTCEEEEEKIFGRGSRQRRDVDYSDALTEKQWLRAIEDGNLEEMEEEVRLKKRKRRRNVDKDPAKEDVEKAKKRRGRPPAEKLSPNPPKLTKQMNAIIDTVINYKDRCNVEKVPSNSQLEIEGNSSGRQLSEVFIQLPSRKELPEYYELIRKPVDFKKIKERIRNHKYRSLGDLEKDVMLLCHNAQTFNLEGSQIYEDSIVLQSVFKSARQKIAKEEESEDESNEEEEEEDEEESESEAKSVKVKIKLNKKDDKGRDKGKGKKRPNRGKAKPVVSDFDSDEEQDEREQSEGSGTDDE

Sequence of BRG-1 (P51532 whole entry): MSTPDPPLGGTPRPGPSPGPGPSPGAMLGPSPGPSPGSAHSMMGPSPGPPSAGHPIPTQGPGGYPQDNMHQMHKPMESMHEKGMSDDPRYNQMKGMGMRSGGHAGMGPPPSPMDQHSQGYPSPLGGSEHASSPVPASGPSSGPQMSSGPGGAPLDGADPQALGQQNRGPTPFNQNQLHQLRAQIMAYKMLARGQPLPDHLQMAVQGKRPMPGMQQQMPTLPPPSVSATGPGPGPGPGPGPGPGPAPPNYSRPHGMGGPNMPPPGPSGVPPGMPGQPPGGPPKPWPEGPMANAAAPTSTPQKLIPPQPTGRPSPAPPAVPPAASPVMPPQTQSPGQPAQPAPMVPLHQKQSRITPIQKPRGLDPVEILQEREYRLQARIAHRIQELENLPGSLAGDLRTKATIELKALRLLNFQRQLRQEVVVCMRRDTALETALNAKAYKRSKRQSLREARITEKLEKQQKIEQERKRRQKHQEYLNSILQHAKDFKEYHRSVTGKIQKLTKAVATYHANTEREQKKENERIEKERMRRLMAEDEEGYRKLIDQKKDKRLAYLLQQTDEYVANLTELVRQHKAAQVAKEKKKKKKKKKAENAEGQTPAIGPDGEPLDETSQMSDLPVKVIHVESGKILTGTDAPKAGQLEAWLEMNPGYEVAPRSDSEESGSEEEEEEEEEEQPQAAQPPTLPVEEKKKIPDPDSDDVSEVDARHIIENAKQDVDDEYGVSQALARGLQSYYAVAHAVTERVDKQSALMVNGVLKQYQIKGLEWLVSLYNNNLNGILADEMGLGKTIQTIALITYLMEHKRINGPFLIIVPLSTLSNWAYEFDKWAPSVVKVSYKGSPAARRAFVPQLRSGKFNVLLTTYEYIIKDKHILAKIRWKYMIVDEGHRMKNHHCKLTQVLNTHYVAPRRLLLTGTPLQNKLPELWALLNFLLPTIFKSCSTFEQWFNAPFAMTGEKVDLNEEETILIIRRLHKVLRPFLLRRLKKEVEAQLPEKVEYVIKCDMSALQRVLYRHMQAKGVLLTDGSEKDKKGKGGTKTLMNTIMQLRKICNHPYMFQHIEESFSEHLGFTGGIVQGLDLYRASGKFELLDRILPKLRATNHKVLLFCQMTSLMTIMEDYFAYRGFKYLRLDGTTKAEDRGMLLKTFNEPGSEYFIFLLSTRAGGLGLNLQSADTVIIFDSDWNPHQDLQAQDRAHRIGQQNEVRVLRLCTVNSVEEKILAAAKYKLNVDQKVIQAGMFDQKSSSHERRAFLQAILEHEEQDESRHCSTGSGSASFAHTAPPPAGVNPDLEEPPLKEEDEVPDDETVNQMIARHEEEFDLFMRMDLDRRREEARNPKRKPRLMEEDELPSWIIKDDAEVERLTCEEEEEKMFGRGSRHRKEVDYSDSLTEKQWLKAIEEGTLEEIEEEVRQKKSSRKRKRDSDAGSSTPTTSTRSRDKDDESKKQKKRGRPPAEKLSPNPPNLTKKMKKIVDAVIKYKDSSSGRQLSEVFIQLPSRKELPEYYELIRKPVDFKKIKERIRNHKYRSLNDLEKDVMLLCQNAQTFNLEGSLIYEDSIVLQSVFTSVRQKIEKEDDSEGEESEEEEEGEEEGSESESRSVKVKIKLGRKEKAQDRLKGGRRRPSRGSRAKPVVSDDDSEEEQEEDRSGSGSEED

## COc1nn(C(F)F)cc1-c1ccc2cnc(CNC(=O)c3ccc4c(c3)[C@](C)(C#N)COC4)cc2n1 [Compound 193]
BRG-1
  IC50: 500 to 1000 nM
  Emax: 86%
BRM
  BRM Max % Inhibition: 99%
  IC50: < 0.1 µM

## C[C@@]1(C#N)COCc2ccc(C(=O)NCc3cc4nc(-c5cccc(C6(C(F)F)COC6)c5)ccc4cn3)cc21 [Compound 194]
BRG-1
  IC50: 500 to 1000 nM
  Emax: 60%
BRM
  BRM Max % Inhibition: 93%
  IC50: 0.1 to 0.5 µM

## COc1cc(C)nn1-c1ccc2cnc(CNC(=O)c3ccc4c(c3)[C@](C)(C#N)COC4)cc2n1 [Compound 195]
BRG-1
  IC50: > 1000 nM
  Emax: 47%
BRM
  BRM Max % Inhibition: 84%
  IC50: 0.1 to 0.5 µM

## Cn1ccc2ccc(-c3ccc4cnc(CNC(=O)c5ccc6c(c5)[C@](C)(C#N)COC6)cc4n3)nc2c1=O [Compound 196]
BRG-1
  IC50: > 1000 nM
  Emax: 59%
BRM
  BRM Max % Inhibition: 86%
  IC50: 0.1 to 0.5 µM

## COc1nn(C2CCOC2)cc1-c1ccc2cnc(CNC(=O)c3ccc4c(c3)[C@](C)(C#N)COC4)cc2n1 (stereo partly drawn) [Compound 197]
BRG-1
  IC50: > 1000 nM
  Emax: 59%
BRM
  BRM Max % Inhibition: 89%
  IC50: 0.1 to 0.5 µM

## C[C@@]1(C#N)COCc2ncc(C(=O)NCc3cc4nc(-c5cccc(C6CC6)c5)ccc4nn3)cc21 [Compound 198]
BRG-1
  IC50: 500 to 1000 nM
  Emax: 76%
BRM
  BRM Max % Inhibition: 94%
  IC50: 0.1 to 0.5 µM

## C[C@@]1(F)COCc2ccc(C(=O)NCc3cc4nc(-c5ccnc(C6CC6)n5)sc4cn3)cc21 [Compound 199]
BRG-1
  IC50: > 1000 nM
  Emax: 14%
BRM
  BRM Max % Inhibition: 85%
  IC50: 0.1 to 0.5 µM

## COc1nn(C2CCC2)cc1-c1ccc2cnc(CNC(=O)c3ccc4c(c3)[C@](C)(C#N)COC4)cc2n1 [Compound 200]
BRG-1
  IC50: 500 to 1000 nM
  Emax: 71%
BRM
  BRM Max % Inhibition: 97%
  IC50: 0.1 to 0.5 µM

## COc1nn(C2COC2)cc1-c1ccc2cnc(CNC(=O)c3ccc4c(c3)[C@](C)(F)COC4)cc2n1 [Compound 201]
BRG-1
  IC50: 500 to 1000 nM
  Emax: 76%
BRM
  BRM Max % Inhibition: 99%
  IC50: < 0.1 µM

## COc1nn(CC(F)F)cc1-c1ccc2cnc(CNC(=O)c3ccc4c(c3)[C@](C)(C#N)COC4)cc2n1 [Compound 202]
BRG-1
  IC50: 500 to 1000 nM
  Emax: 67%
BRM
  BRM Max % Inhibition: 94%
  IC50: < 0.1 µM

## COCCn1cc(-c2ccc3cnc(CNC(=O)c4ccc5c(c4)[C@](C)(C#N)COC5)cc3n2)c(OC)n1 [Compound 203]
BRG-1
  IC50: > 1000 nM
  Emax: 26%
BRM
  BRM Max % Inhibition: 84%
  IC50: 0.1 to 0.5 µM

## C[C@@]1(C#N)COCc2ccc(C(=O)NCc3cc4nc(-c5ccnc(C6(F)CC6)n5)ccc4cn3)cc21 [Compound 204]
BRG-1
  IC50: 500 to 1000 nM
  Emax: 82%
BRM
  BRM Max % Inhibition: 97%
  IC50: < 0.1 µM

## CCC(C)(O)c1cccc(-c2ccc3cnc(CNC(=O)c4ccc5c(c4)[C@](C)(F)COC5)cc3n2)n1 (stereo partly drawn) [Compound 205]
BRG-1
  IC50: 500 to 1000 nM
  Emax: 52%
BRM
  BRM Max % Inhibition: 91%
  IC50: 0.1 to 0.5 µM

## C[C@@]1(C#N)COCc2ccc(C(=O)NCc3ncc4ccc(-c5cncc(C6CC6)n5)cc4n3)cc21 [Compound 206]
BRG-1
  IC50: 100 to 500 nM
  Emax: 85%
BRM
  BRM Max % Inhibition: 99%
  IC50: < 0.1 µM

## C[C@@]1(F)COCc2ccc(C(=O)NCc3cc4nc(-c5ccnc(N6CCC6)c5F)cnc4cn3)cc21 [Compound 207]
BRG-1
  IC50: 100 to 500 nM
  Emax: 89%
BRM
  BRM Max % Inhibition: 98%
  IC50: < 0.1 µM

## C[C@@]1(C#N)COCc2ncc(C(=O)NCc3cc4nc(-c5cccc(C6CC6)n5)ccc4cn3)cc21 [Compound 208]
BRG-1
  IC50: 100 to 500 nM
  Emax: 92%
BRM
  BRM Max % Inhibition: 98%
  IC50: < 0.1 µM

## CC1c2cc(CNC(=O)c3ccc4c(c3)[C@](C)(C#N)COC4)ncc2CCN1c1cncc(C2CC2)n1 (stereo partly drawn) [Compound 209]
BRG-1
  IC50: 500 to 1000 nM
  Emax: 51%
BRM
  BRM Max % Inhibition: 89%
  IC50: 0.1 to 0.5 µM

## C[C@@]1(C#N)COCc2ncc(C(=O)NCc3cc4nc(-c5cccc(N6CCC6)n5)ccc4cn3)cc21 [Compound 210]
BRG-1
  IC50: 100 to 500 nM
  Emax: 96%
BRM
  BRM Max % Inhibition: 99%
  IC50: < 0.1 µM

## [2H]C1([2H])OC[C@@](C)(F)c2cc(C(=O)NCc3cc4nc(-c5cncc(C6CC6)n5)ccc4cn3)cnc21 [Compound 211]
BRG-1
  IC50: 500 to 1000 nM
  Emax: 82%
BRM
  BRM Max % Inhibition: 97%
  IC50: 0.1 to 0.5 µM

## C[C@@H](O)c1cccc(-c2ccc3cnc(CNC(=O)c4cnc5c(c4)[C@](C)(F)COC5)cc3n2)n1 [Compound 212]
BRG-1
  IC50: > 1000 nM
  Emax: 39%
BRM
  BRM Max % Inhibition: 89%
  IC50: 0.1 to 0.5 µM

## C[C@H](O)c1cccc(-c2ccc3cnc(CNC(=O)c4ccc5c(c4)[C@](C)(F)COC5)cc3n2)n1 [Compound 213]
BRG-1
  IC50: 500 to 1000 nM
  Emax: 63%
BRM
  BRM Max % Inhibition: 97%
  IC50: 0.1 to 0.5 µM

## C[C@@]1(F)COCc2ccc(C(=O)NCc3cc4nc(-c5cccc(N6CCC6)n5)cnc4cn3)cc21 [Compound 214]
BRG-1
  IC50: 100 to 500 nM
  Emax: 93%
BRM
  BRM Max % Inhibition: 99%
  IC50: < 0.1 µM

## C[C@@]1(F)COCc2ncc(C(=O)NCc3cc4nc(-c5ccnc(N6CCC6)c5F)cnc4cn3)cc21 [Compound 215]
BRG-1
  IC50: 100 to 500 nM
  Emax: 90%
BRM
  BRM Max % Inhibition: 97%
  IC50: < 0.1 µM

## C[C@@]1(F)COCc2ncc(C(=O)NCc3cc4nc(-c5cccc(N6CCC6)n5)cnc4cn3)cc21 [Compound 216]
BRG-1
  IC50: 100 to 500 nM
  Emax: 90%
BRM
  BRM Max % Inhibition: 98%
  IC50: < 0.1 µM

## C[C@@]1(C#N)COCc2ccc(C(=O)NCc3cc4nc(-c5ccnc([C@H]6CC6(F)F)n5)ccc4cn3)cc21 [Compound 217]
BRG-1
  IC50: 500 to 1000 nM
  Emax: 79%
BRM
  BRM Max % Inhibition: 98%
  IC50: < 0.1 µM

## C[C@@]1(C#N)COCc2ccc(C(=O)NCc3cc4nc(-c5ccnc([C@@H]6CC6(F)F)n5)ccc4cn3)cc21 [Compound 218]
BRG-1
  IC50: 500 to 1000 nM
  Emax: 79%
BRM
  BRM Max % Inhibition: 99%
  IC50: < 0.1 µM

## C[C@@]1(C#N)COCc2ccc(C(=O)NCc3cc4cc(N5CCn6ncc(C(F)F)c6C5)ccc4nn3)cc21 [Compound 219]
BRG-1
  IC50: 500 to 1000 nM
  Emax: 57%
BRM
  BRM Max % Inhibition: 94%
  IC50: 0.1 to 0.5 µM

## C[C@@]1(C#N)COCc2ccc(C(=O)NCc3cc4cc(N5CCn6ncc(C(F)F)c6C5)cnc4cn3)cc21 [Compound 220]
BRG-1
  IC50: > 1000 nM
  Emax: 47%
BRM
  BRM Max % Inhibition: 92%
  IC50: 0.1 to 0.5 µM

## C[C@@]1(C#N)COCc2ncc(C(=O)NCc3cc4nc(-c5cncc(C6CC6)n5)ccc4cn3)cc21 [Compound 221]
BRG-1
  IC50: 100 to 500 nM
  Emax: 88%
BRM
  BRM Max % Inhibition: 99%
  IC50: < 0.1 µM

## [2H]C1([2H])OCc2ncc(C(=O)NCc3cc4nc(-c5cncc(C6CC6)n5)ccc4cn3)cc2[C@]1(C)F [Compound 222]
BRG-1
  IC50: 500 to 1000 nM
  Emax: 83%
BRM
  BRM Max % Inhibition: 98%
  IC50: < 0.1 µM

## CN(C)c1cccc(-c2ccc3nnc(CNC(=O)c4ccc5c(c4)[C@](C)(C#N)COC5)cc3n2)n1 [Compound 223]
BRG-1
  IC50: < 100 nM
  Emax: 101%
BRM
  BRM Max % Inhibition: 101%
  IC50: < 0.1 µM

## CN(C)c1cccc(-c2ccc3cnc(CNC(=O)c4cnc5c(c4)[C@](F)(C(F)F)COC5)cc3n2)n1 [Compound 224]
BRG-1
  IC50: < 100 nM
  Emax: 100%
BRM
  BRM Max % Inhibition: 101%
  IC50: < 0.1 µM

## COc1nn(C2CC2)cc1-c1ccc2cnc(CNC(=O)c3ccc4c(c3)[C@](C)(C#N)COC4)cc2n1 [Compound 225]
BRG-1
  IC50: 500 to 1000 nM
  Emax: 72%
BRM
  BRM Max % Inhibition: 92%
  IC50: 0.1 to 0.5 µM

## CN(C)c1cccc(-c2ccc3cnc(CNC(=O)c4cc(F)c5c(c4)[C@](F)(C(F)F)COC5)cc3n2)n1 [Compound 226]
BRG-1
  IC50: 100 to 500 nM
  Emax: 85%
BRM
  BRM Max % Inhibition: 98%
  IC50: 0.1 to 0.5 µM

## CN(C)c1cccc(-c2ccc3cnc(CNC(=O)c4cnc5c(c4)[C@@](F)(C(F)F)COC5)cc3n2)n1 [Compound 227]
BRG-1
  IC50: 100 to 500 nM
  Emax: 94%
BRM
  BRM Max % Inhibition: 99%
  IC50: < 0.1 µM

## O=C(NCc1cc2nc(-c3cncc(C4CC4)n3)ccc2cn1)c1cnc2c(c1)[C@](F)(C(F)F)COC2 [Compound 228]
BRG-1
  IC50: 100 to 500 nM
  Emax: 98%
BRM
  BRM Max % Inhibition: 100%
  IC50: < 0.1 µM

## O=C(NCc1cc2nc(-c3cncc(C4CC4)n3)ccc2cn1)c1cnc2c(c1)[C@@](F)(C(F)F)COC2 [Compound 229]
BRG-1
  IC50: 100 to 500 nM
  Emax: 90%
BRM
  BRM Max % Inhibition: 100%
  IC50: < 0.1 µM

## C[C@@]1(C#N)COCc2ccc(C(=O)NCc3cc4c(cn3)CCN(c3ccc(=O)n(C5CC5)n3)C4)cc21 [Compound 230]
BRG-1
  IC50: 500 to 1000 nM
  Emax: 62%
BRM
  BRM Max % Inhibition: 97%
  IC50: 0.1 to 0.5 µM

## Cc1cc(-c2ccc3cnc(CNC(=O)c4ccc5c(c4)[C@](C)(C#N)COC5)cc3n2)on1 [Compound 231]
BRG-1
  IC50: > 1000 nM
  Emax: 46%
BRM
  BRM Max % Inhibition: 91%
  IC50: 0.1 to 0.5 µM

## C[C@@]1(F)COCc2ccc(C(=O)NCc3cc4nc(-c5ccc(=O)n(C6CC6)n5)ccc4cn3)cc21 [Compound 233]
BRG-1
  IC50: 500 to 1000 nM
  Emax: 74%
BRM
  BRM Max % Inhibition: 98%
  IC50: 0.1 to 0.5 µM

## C[C@@]1(C#N)COCc2ccc(C(=O)NCc3cc4c(nn3)CCN(c3cccc(N5CCC5)n3)C4)cc21 [Compound 234]
BRG-1
  IC50: 500 to 1000 nM
  Emax: 49%
BRM
  BRM Max % Inhibition: 96%
  IC50: 0.1 to 0.5 µM

## C[C@@]1(C#N)COCc2ccc(C(=O)NCc3cc4nc(-c5ccnc(N6CCC6)c5F)sc4cn3)cc21 [Compound 235]
BRG-1
  IC50: 100 to 500 nM
  Emax: 72%
BRM
  BRM Max % Inhibition: 99%
  IC50: < 0.1 µM
